Read-outs that look alike come from different tables or passages of the source. Positions of bridges follow the written chain, without caps; N, C: chain ends. No end group written: not given here.
Legend:
[1] = for HA nucleation templated by peptide deposited from cosolvent: 1.5 mg/ml in acetonitrile and water (1:1/v:v), dried on grid, soaked in mineral precursor solutions; for HA nucleation templated by peptide solution in 100% water: compared to peptides 1 and 2
Procedure: (CaCl2 (10 mM)+Na2HPO4 (5 mM)→Ca10(OH)2(PO4)6). The inset photographs show the X-ray diffraction patterns of the crystals at each timepoint.
In order to investigate the nucleation ability of these binding peptides, the major 12-mer linear binding peptide was synthesized by solid phase synthetic method and subjected to HA-mineralization on holey carbon film-coated TEM grids according to J. D. Hartgerink, E. Beniash, S. I. Stupp, Science, 294, 1684 (2001), which is hereby incorporated by reference.
In order to study kinetics of HA nucleation by this peptide suspension, time dependence nucleation was investigated by preparing parallel TEM samples where HA was nucleated for 30 min (FIG. 20, Panel C), 1 hr (FIG. 20, Panel D), and 2 hrs (FIG. 20, Panel E) by same concentration peptide suspension.

[2] = Flow cytometric measurement of fluorescence intensity of binding viruses on HA surfaces
Procedure: (§1) Single crystalline and polycrystalline HA were freshly etched to remove carbonated contaminates and incubated with 1×10^10 pfu of phage of W4a-4-14 (Single 14), W4a-4-15 (single 15), HA-4-3 (poly 3), wild type (wild) phages suspension for these assays.
(§2) As described in Example 1, 4 mg of single crystalline HA was freshly etched to remove carbonated contaminates and incubated with 1×10^10 pfu of phage of constrained W4a-4-14 (Single 14), W4a-4-15 (single 15), HA-4-3 (poly 3), wild type (wild) phages suspension. After washing off with TBST (0.5%) ten times, the bound phage was eluted using glycine-HCl […] and titered to count number of bound phage.
After 30 minutes incubation of 4 mg/ml of HA crystals with ˜10^10 pfu/ml of each phage, CLP7, CLP12, or the wild type phages, the HA crystals were washed ten times with Tris-buffered saline solution (pH 7.5) contained 0.5% Tween 20. The phage bound to HA surfaces was labeled by R-phycoerythrin-conjugated monoclonal pVIII antibody (Amersham Pharmacia Biotech, UK), and the fluorescence images were acquired (Nikon fluorescence microscope, Japan) and the fluorescence intensity was quantified by FACS Calibur flow cytometer (BD Biosciences, Calif.).

[3] = Phage titering assay counting phage eluted from HA; format: binding; settings: FIG. 12 Panel B; comparing to the wild type viruses / the other three peptides; TBST (0.5%) wash, glycine-HCl elution
Procedure: as §1, §2

[4] = 1.5 mg/ml peptide, two hours mineralization, 5 mM Na2HPO4 + 10 mM CaCl2

| Substance | HA nucleation templated by peptide deposited from cosolvent [1] | HA nucleation templated by peptide solution in 100% water [1] | HA deposition templated by peptide (TEM/SAED) [1, 4] | also measured |
| --- | --- | --- | --- | --- |
| APYHPTIPASVH-GGGK-biotin [peptide 5] | nucleation phenomena similar to those templated by HA binding peptides | relatively bigger amorphous calcium phosphate aggregation | – | – |
| NPDHPDIPQDVH-GGGK-biotin [Control peptide 2] | – | – | amorphous deposition of calcium phosphate without any clear diffraction patterns | – |
| NPYHPTIPQSVH [Single 15] | – | – | – | improved binding affinity (fluorescence intensity of binding viruses on HA surfaces) ([2]; flow cytometry, FIG. 12 Panel A, phage-displayed peptide compared to wild type phage, 1×10^10 pfu): around 50% |
| NPYAPTIPQSVA-GGGK-biotin [peptide 4] | nucleation phenomena similar to those templated by HA binding peptides | relatively bigger amorphous calcium phosphate aggregation | – | – |
| NPYHPTIPQSVH-GGGK-biotin [peptide 3] | nucleation phenomena similar to those templated by HA binding peptides | reduced HA-nucleation ability with different morphology of HA crystals | – | – |
| Cys Asn Tyr Pro Thr Leu Lys Ser Cys (CNYPTLKSC; disulfide 1-9 (inferred); also: displayed on M13 phage) [single 14] | – | – | – | binding to HA surfaces, rank among viruses tested ([2]; phage-displayed peptides single 14, single 15, poly 3 and wild type): bind best to HA surfaces among all viruses tested; strength of HA binding relative to comparators [3]: almost three times stronger |
| NPYHPTIPQSVH-GGGK-biotin [single 15-biotin] | – | – | well crystallized HA deposition | HA deposition templated by peptide (TEM/SAED) ([1]; 15 mg/ml peptide, two hours, same amount of CaCl2 and Na2HPO4): well-crystallized HA crystals; HA nucleation, time dependence (TEM/SAED) ([1]; 30 min): amorphous deposition of calcium phosphate; HA nucleation, time dependence (TEM/SAED) ([1]; after 2 hours): fully developed HA crystals were nucleated |
| NIYHPTPPQSVH-GGGK-biotin [control peptide 1] | – | – | amorphous calcium phosphate deposition without any clear SAED patterns | – |
